Measured values reported in US20240173432A1, “Compositions and Methods for Treatment of Myotonic Dystrophy Type 1 with CRISPR/SluCas9” (Vertex Pharmaceuticals Incorporated, priority 2021, published 2024).

How the values were obtained:
[1] = tested on: CUG foci in primary DM1 patient myoblasts; assay: Single-cut screening: FISH staining of CUG RNA foci; type: cell-based, human; conditions: for frequency of CUG foci free myoblast nuclei (foci number per nucleus=0) / frequency of myoblast nuclei that contain more than three CUG foci: RNA foci distribution analysis (FIG. 6A-B); for % of CUG foci free nuclei (DNA-PKi) / % of CUG foci free nuclei (Vehicle): single sgRNA, primary DM1 patient myoblasts; for % of CUG foci free nuclei (DNA-PKi): DNA-PKi treated
Summary of the method: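 CD56-purified primary DM1 patient myoblasts nucleofected with SluCas9:sgRNA RNP (30:90 pmol, single-cut), then DMSO or 3 μM DNA-PK inhibitor for 48 h. At 72 h post-nucleofection, cells fixed and stained for CUG foci with Cy3-PNA(CAG)5 probe (1 ng/μL, 80 °C), co-stained for MBNL1 and Hoechst, imaged by high-content confocal microscopy.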

[2] = tested on: CUG foci in primary DM1 patient myoblasts; assay: Dual-cut screening: FISH staining of CUG RNA foci; type: cell-based, human; conditions: sgRNAs working with partner(s) or alone
Summary of the method: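 SluCas9 RNPs (protein:sgRNA 1:3; 20 pmol SluCas9 + 60 pmol sgRNA per guide, paired 1:1) nucleofected into primary DM1 patient myoblasts, then DMSO or 3 μM DNA-PKi Compound 6 for 48 h. At 72 h post-nucleofection cells fixed, FISH-stained with Cy3-PNA(CAG)5 probe plus anti-MBNL1 and Hoechst; % CUG foci-free nuclei by high-content confocal imaging.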

In the case of “ATGGGCAAACTGCAGGCCTGGG (listed as DNA, chemistry not fully specified) [SluD14]”, the “frequency of CUG foci free myoblast nuclei (foci number per nucleus=0)” value [1] is reported as “increased the frequency”, the “frequency of myoblast nuclei that contain more than three CUG foci” value [1] is reported as “reduced the frequency” and the “% of CUG foci free nuclei (DNA-PKi)” value [1] is reported as 81.82%. For the same substance, the “% of CUG foci free nuclei (Vehicle)” value [1] was 53.12%, the “percentage of CUG foci free nuclei” value ([1]; single-cut, DNA-PKi treatment (3 μM Compound 6, 48 hrs)) was 81.82% and the “RNA foci reduction efficiency” value [2] was “exceptionally high RNA foci reduction efficiency”.

For “GCCCCGTTGGAAGACTGAGTGC (listed as DNA, chemistry not fully specified) [SluU08]”, the “% of CUG foci free nuclei (DNA-PKi)” value [1] was 61.56%, the “% of CUG foci free nuclei (Vehicle)” value [1] was 31.42% and the “RNA foci reduction efficiency” value [2] was “exceptionally high RNA foci reduction efficiency”.

For “gggcTCGAAGGGTCCTTGTAGC (as printed in the source, key not given here) [SluU64]”, the “% of CUG foci free nuclei (DNA-PKi)” value [1] was 67.39%, the “% of CUG foci free nuclei (Vehicle)” value [1] was 37.58% and the “RNA foci reduction efficiency” value [2] was “exceptionally high RNA foci reduction efficiency”.

In the case of “ggggcTCGAAGGGTCCTTGTAG (as printed in the source, key not given here) [SluU63]”, the “frequency of CUG foci free myoblast nuclei (foci number per nucleus=0)” value [1] is reported as “increased the frequency”, the “frequency of myoblast nuclei that contain more than three CUG foci” value [1] is reported as “reduced the frequency” and the “% of CUG foci free nuclei (DNA-PKi)” value [1] is reported as 70.99%. For the same substance, the “% of CUG foci free nuclei (Vehicle)” value [1] was 44.78% and the “RNA foci reduction efficiency” value [2] was “exceptionally high RNA foci reduction efficiency”.
